Patent US9630894B2, “Energy efficient method and apparatus for the extraction of biomolecules from dilute aqueous solution” (DYNASEP INC., priority 2012, dated 2017)
Entries after “also recorded” stand apart in the source; their conditions may differ.

Tested on: fermentation cultures
Assay: DME toxicity study: cell growth by absorption at 600 nm (A600)
Assay type: cell-based
Protocol: Toxicity studies were performed to determine the effects of DME on fermentation cultures. Cell growth, viability and solvent production were measured to determine what effect DME has on fermentation cultures. Cell growth was monitored by absorption measurements taken at 600 nm (A600). Viability was measured by counting the colony forming units (CFU) after 24 hours. Solvent production was quantified by HPLC.
The first round of testing was performed using media that had been sparged with DME gas at 23° C. The amount of DME absorbed into the media was measured by weight gain after sparging. […] Two control cultures were also used for direct comparison of cultures with and without the presence of DME.
A second round of testing was performed at lower DME concentrations. […] Based on the solvent measurements in Table 8 and Table 9 solvent production was also unaffected by DME at 0.7 wt. %. […] This is apparent after examination of the cell density and solvent production for samples 1-5, 2-1, 2-4 and 2-5 in comparison to the control samples 1-B and 2-B.

## COC [DME, dimethyl ether]
DME above 2.5 wt. % (2.5 to 3 wt. %)
  effect on growth and solvent production: substantial decrease; also recorded: more substantially inhibited; also recorded: severely inhibit
DME approximately 1.6 wt. %
  effect on growth and solvent production: some inhibition; also recorded: partially inhibit
DME below 0.7 wt. %
  effect on cell growth and solvent production: did not appear to inhibit growth; also recorded: do not have a noticeable effect; also recorded: have no observable effect; also recorded: no noticeable effect
Culture 1-1, […] DME, 4 hours
  A600: 0.184
Culture 1-1, […] DME, 7 hours
  A600: 0.241
Culture 1-1, […] DME, 28 hours
  A600: 0.137
Culture 1-1, […] DME, 196 hours
  A600: 0.075
Culture 1-2, 3.48% DME, 4 hours
  A600: 0.205
Culture 1-2, 3.48% DME, 7 hours
  A600: 0.194
Culture 1-2, 3.48% DME, 28 hours
  A600: 0.175
Culture 1-2, 3.48% DME, 196 hours
  A600: 0.39
Culture 1-2, DME 18.1 g/L, 3 hours
  A600 values: 0.523
Culture 1-2, DME 18.1 g/L, 24 hours
  A600 values: 2.565
Culture 1-2, DME 18.1 g/L, 40 hours
  A600 values: 1.82
Culture 1-2, DME 18.1 g/L, 64 hours
  A600 values: 1.97
Culture 1-3, DME 19.4 g/L, 3 hours
  A600 values: 0.463
Culture 1-3, DME 19.4 g/L, 24 hours
  A600 values: 2.695
Culture 1-3, DME 19.4 g/L, 40 hours
  A600 values: 2.16
Culture 1-3, DME 19.4 g/L, 64 hours
  A600 values: 2.15
Culture 1-3, […] DME, 4 hours
  A600: 0.340
Culture 1-3, […] DME, 7 hours
  A600: 0.690
Culture 1-3, […] DME, 22 hours
  A600: 1.745
Culture 1-3, […] DME, 28 hours
  A600: 1.69
Culture 1-3, […] DME, 196 hours
  A600: 1.08
Culture 1-4*, DME 43.8 g/L, 3 hours
  A600 values: 0.807
Culture 1-4*, DME 43.8 g/L, 24 hours
  A600 values: 3.005
Culture 1-4*, DME 43.8 g/L, 40 hours
  A600 values: 1.95
Culture 1-4*, DME 43.8 g/L, 64 hours
  A600 values: 2.14
Culture 1-5, DME 25.8 g/L, 3 hours
  A600 values: 0.543
Culture 1-5, DME 25.8 g/L, 24 hours
  A600 values: 1.415
Culture 1-5, DME 25.8 g/L, 40 hours
  A600 values: 1.28
Culture 1-5, DME 25.8 g/L, 64 hours
  A600 values: 1.26
Culture 2-1, DME 26.0 g/L, 3 hours
  A600 values: 0.505
Culture 2-1, DME 26.0 g/L, 24 hours
  A600 values: 1.390
Culture 2-1, DME 26.0 g/L, 40 hours
  A600 values: 2.48
Culture 2-1, DME 26.0 g/L, 64 hours
  A600 values: 2.24
Culture 2-1, weight % DME printed as ?, 4 hours
  A600: 0.140
Culture 2-1, weight % DME printed as ?, 7 hours
  A600: 0.157
Culture 2-1, weight % DME printed as ?, 28 hours
  A600: 0.072
Culture 2-1, weight % DME printed as ?, 196 hours
  A600: 0.05
Culture 2-2, 3.92% DME, 4 hours
  A600: 0.173
Culture 2-2, 3.92% DME, 7 hours
  A600: 0.178
Culture 2-2, 3.92% DME, 28 hours
  A600: 0.127
Culture 2-2, 3.92% DME, 196 hours
  A600: 0.32
Culture 2-2, DME 6.8 g/L, 3 hours
  A600 values: 0.776
Culture 2-2, DME 6.8 g/L, 24 hours
  A600 values: 3.755
Culture 2-2, DME 6.8 g/L, 40 hours
  A600 values: 1.29
Culture 2-2, DME 6.8 g/L, 64 hours
  A600 values: 1.36
Culture 2-3, 3.72% DME, 4 hours
  A600: 0.230
Culture 2-3, 3.72% DME, 7 hours
  A600: 0.159
Culture 2-3, 3.72% DME, 28 hours
  A600: 0.077
Culture 2-3, 3.72% DME, 196 hours
  A600: 0.06
Culture 2-3, DME 6.6 g/L, 3 hours
  A600 values: 0.783
Culture 2-3, DME 6.6 g/L, 24 hours
  A600 values: 3.700
Culture 2-3, DME 6.6 g/L, 40 hours
  A600 values: 2.65
Culture 2-3, DME 6.6 g/L, 64 hours
  A600 values: 2.63
Culture 2-4, DME 29.1 g/L, 3 hours
  A600 values: 0.590
Culture 2-4, DME 29.1 g/L, 24 hours
  A600 values: 1.195
Culture 2-4, DME 29.1 g/L, 40 hours
  A600 values: 2.63
Culture 2-4, DME 29.1 g/L, 64 hours
  A600 values: 2.19
Culture 2-5, DME 27.9 g/L, 3 hours
  A600 values: 0.885
Culture 2-5, DME 27.9 g/L, 24 hours
  A600 values: 1.735
Culture 2-5, DME 27.9 g/L, 40 hours
  A600 values: 1.18
Culture 2-5, DME 27.9 g/L, 64 hours
  A600 values: 1.19
Media containing 3 to 4 wt. % DME
  effect on cell growth: substantial reduction in cell growth
